Laboratory results from patent publication US5137920A, “Method of treating fungal infections” (Hoffmann-La Roche Inc., priority 1989, dated 1992).
Structures can show the parent of a compound that is named as a salt. Where two headings read alike, the source gives them in different places.

Legend:
[1] = Acute toxicity in the case of subcutaneous administration to mice; details: mouse, in vivo, sc
Description: The IC50 values were determined graphically and are given in μg of test substance per ml. Table I contains IC50 values determined in the above test for representative members of the class of compound defined by formula I as well as data concerning the acute toxicity in the case of subcutaneous administration to mice (LD50 in mg/kg).

[2] = target: T1, 2,3-epoxysqualene-lanosterol cyclase (Candida albicans, UniProt Q04782); assay: Inhibition of 2,3-epoxysqualene-lanosterol cyclase from Candida albicans (14C-squalene epoxide, cell-free extract); assay type: biochemical
T1 construct: there was obtained a cell-free extract (CFE) as the supernatant; endogenous in cells; host or cells: Candida albicans culture (cell-free extract, 10000 g supernatant of ruptured protoplasts)

[3] = system: Candida albicans; assay: Agar dilution method, application alone and in combination with ketoconazole (synergistic activity); assay type: cell-based; details: for FIC (fractional inhibitory concentration): Compound 1 + ketoconazole, synergistic if <0.5; for MIC: Candida albicans, 48 h, casitone agar, 37° C., 2 days
[4] = C. albicans cell-free extract, pH 6.9, 30°, 1 hour, read-out: IC50 (converted)

T1 sequence (Q04782 whole entry): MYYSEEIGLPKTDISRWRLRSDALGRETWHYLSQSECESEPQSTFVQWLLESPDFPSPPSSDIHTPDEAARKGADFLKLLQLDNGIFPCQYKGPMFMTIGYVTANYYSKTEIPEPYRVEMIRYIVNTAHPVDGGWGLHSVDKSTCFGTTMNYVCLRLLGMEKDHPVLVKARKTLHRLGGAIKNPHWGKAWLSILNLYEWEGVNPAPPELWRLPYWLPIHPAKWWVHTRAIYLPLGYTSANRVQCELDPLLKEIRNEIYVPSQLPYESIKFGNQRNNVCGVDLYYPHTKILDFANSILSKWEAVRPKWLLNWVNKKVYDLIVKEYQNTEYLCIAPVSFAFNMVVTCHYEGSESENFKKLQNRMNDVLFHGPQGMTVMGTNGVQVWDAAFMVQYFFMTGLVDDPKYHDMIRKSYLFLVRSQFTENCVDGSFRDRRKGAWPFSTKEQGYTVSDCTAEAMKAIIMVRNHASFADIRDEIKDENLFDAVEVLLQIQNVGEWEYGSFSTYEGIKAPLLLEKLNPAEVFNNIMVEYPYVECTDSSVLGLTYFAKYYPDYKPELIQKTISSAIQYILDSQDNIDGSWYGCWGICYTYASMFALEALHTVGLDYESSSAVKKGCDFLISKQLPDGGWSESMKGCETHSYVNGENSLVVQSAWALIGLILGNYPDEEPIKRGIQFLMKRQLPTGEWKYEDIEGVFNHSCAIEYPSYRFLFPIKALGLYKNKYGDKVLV

For CN(C)CCCCCCCc1ccc(C(=O)c2ccccc2)cc1 [Compound 1, 4-[7-(dimethylamino)heptyl]benzophenone], the LD50 [1] was 312 to 625 mg/kg, the IC50 [2] was 526 nM and the “FIC (fractional inhibitory concentration)” value ([3]; C. albicans B4) was 0.06. For the same compound, the MIC in combination ([3]; C. albicans B4, Compound 1 in combination with ketoconazole) was 1.2 µg/mL, the “FIC (fractional inhibitory concentration)” value ([3]; C. albicans B5) was 0.53 and the MIC in combination ([3]; C. albicans B5, Compound 1 in combination with ketoconazole) was 1.2 µg/mL. The “FIC (fractional inhibitory concentration)” value ([3]; C. albicans H12) was 0.19, the MIC in combination ([3]; C. albicans H12, Compound 1 in combination with ketoconazole) was 2.5 µg/mL and the “FIC (fractional inhibitory concentration)” value ([3]; C. albicans H29) was 0.19. For the same compound, the MIC in combination ([3]; C. albicans H29, Compound 1 in combination with ketoconazole) was 1.2 µg/mL, the “FIC (fractional inhibitory concentration)” value ([3]; C. albicans H42) was 0.005 and the MIC in combination ([3]; C. albicans H42, Compound 1 in combination with ketoconazole) was 1.2 µg/mL. It also gave an MIC ([3]; C. albicans B4, Compound 1 alone) of 20 µg/mL, an MIC ([3]; C. albicans B5, Compound 1 alone) of 20 µg/mL and an MIC ([3]; C. albicans H12, Compound 1 alone) of 20 µg/mL. For the same compound, the MIC ([3]; C. albicans H29, Compound 1 alone) was 10 µg/mL, the MIC ([3]; C. albicans H42, Compound 1 alone) was 20 µg/mL and the synergistic activity ([3]; in combination with ketoconazole, C. albicans) was “confirms the synergistic activity”.
CN(C)CCCCCCCc1ccc(C(=O)Cc2ccccc2)cc1 [Compound 2, 4'-[7-(dimethylamino)heptyl]-2-phenylacetophenone] showed an IC50 [2, 4] of 1420 nM.
Work on CN(C)CCCCCCCc1ccc(C(=O)c2ccc(F)cc2)cc1 [Compound 3, 4'-fluoro-4-[7-(dimethylamino)heptyl]benzophenone] yielded an IC50 [2, 4] of 1230 nM.
CN(C)CCCCCCCc1ccc(C(=O)c2ccc(C(F)(F)F)cc2)cc1 [Compound 4, 4-[7-(dimethylamino)heptyl]-4'-(trifluoromethyl)benzophenone] gave an IC50 [2, 4] of 3450 nM.
In the case of CN(C)CCCCCCCc1ccc(C(=O)c2ccc(F)cc2F)cc1 [Compound 5, 2,4-difluoro-4'-[7-(dimethylamino)heptyl]benzophenone], the IC50 [2, 4] is reported as 1530 nM.
Work on CN(C)CCCc1ccc(C(=O)/C=C/c2ccc(Cl)cc2)cc1 [Compound 6, (E)-3-(4-chlorophenyl)-4'-[3-(dimethylamino)propyl]acrylophenone] yielded an IC50 [2, 4] of 3660 nM.
For CN(C)CCCc1ccc(C(=O)CCc2ccc(Cl)cc2)cc1 [Compound 7, 3-(4-chlorophenyl)-4'-[3-(dimethylamino)propyl]propiophenone hydrochloride], the IC50 [2, 4] was 1090 nM.
With CN(C)CCCc1ccc(C(=O)CCc2ccc(F)cc2)cc1 [Compound 8, 3-(4-fluorophenyl)-4'-[3-(dimethylamino)propyl]propiophenone] the IC50 [2, 4] was 1750 nM.
Cc1ccccc1CCC(=O)c1ccc(CCCN(C)C)cc1 [Compound 9, 3-(2-methylphenyl)-4'-[3-(dimethylamino)propyl]propiophenone] gave an IC50 [2, 4] of 355 nM.
In the case of CN(C)CCCc1ccc(C(=O)CCc2cccc(Cl)c2)cc1 [Compound 10, 3-(3-chlorophenyl)-4'-[3-(dimethylamino)propyl]propiophenone], the IC50 [2, 4] is reported as 1330 nM.
In the case of CN(C)CCCc1ccc(C(=O)CCc2ccc([N+](=O)[O-])cc2)cc1 [Compound 11], the IC50 [2, 4] is reported as 823 nM.
O=C(/C=C/c1ccccc1)c1ccc(CCCN2CCCC2)cc1 [Compound 12, (E)-3-phenyl-4'-[3-(1-pyrrolidinyl)propyl]acrylophenone] showed an IC50 [2, 4] of 783 nM.
Work on O=C(CCc1ccccc1)c1ccc(CCCN2CCCC2)cc1 [Compound 13, 3-phenyl-4'-[3-(1-pyrrolidinyl)propyl]propiophenone] yielded an IC50 [2, 4] of 1240 nM.
Compound CN(C)CCCc1ccc(C(=O)c2ccccc2)cc1 [Compound 14] has an IC50 [2, 4] of 18700 nM.
Compound CN(C)CCCCCCCCc1ccc(C(=O)c2ccccc2)cc1 [Compound 15] has an IC50 [2, 4] of 1210 nM.
With CN(C)CCCCCCCCc1ccc(C(=O)c2ccccc2)cc1 [Compound 16, 4-[8-(Dimethylamino)octyl]benzophenone] the IC50 [2, 4] was 415 nM.
For CN(C)CCCCCCCc1ccc(C(=O)c2ccc(Cl)cc2)cc1 [Compound 17, 4-chloro-4'-[7-(dimethylamino)heptyl]benzophenone], the IC50 [2, 4] was 1370 nM.
For CN(C)CCCCCCCc1ccc(C(=O)c2ccc(Br)cc2)cc1 [Compound 18, 4-Bromo-4'-[7-(dimethylamino)heptyl]benzophenone], the IC50 [2, 4] was 2140 nM.
Compound CN(C)CCCCCCCc1ccc(C(=O)c2ccc(Cl)cc2Cl)cc1 [Compound 19, 2,4-Dichloro-4'-[7-(dimethylamino)heptyl]benzophenone] has an IC50 [2, 4] of 1910 nM.
For CN(C)CCCCCCCc1ccc(C(=O)c2ccc(C#N)cc2)cc1 [Compound 20], the IC50 [2, 4] was 746 nM.
Compound C=CCN(C)CCCCCCCc1ccc(C(=O)c2ccccc2)cc1 [Compound 21, 4-[7-(Allylmethylamino)heptyl]benzophenone] has an IC50 [2] of 143 nM.
With C=CCN(C)CCCCCCCc1ccc(C(=O)c2ccc(Br)cc2)cc1 [Compound 22, 4-[7-(Allylmethylamino)heptyl]-4'-bromobenzophenone] the IC50 [2] was 443 nM.
C=CCN(C)CCCCCCCc1ccc(C(=O)c2ccc(C#N)cc2)cc1 [Compound 23, 4-[4'-[7-(Allylmethylamino)heptyl]benzoyl]benzonitrile] showed an IC50 [2] of 160 nM.
C=CCN(C)CCCCCCc1ccc(C(=O)c2ccc(Br)cc2)cc1 [Compound 24, 4-[6-(Allylmethylamino)hexyl]-4'-bromobenzophenone] showed an LD50 [1] of 312 to 625 mg/kg and an IC50 [2] of 229 nM.
Compound CN(C)CCCCCCc1ccc(C(=O)c2ccc(Br)cc2)cc1 [Compound 25, 4-Bromo-4'-[6-(dimethylamino)hexyl]benzophenone hydrochloride] has an IC50 [2, 4] of 2170 nM.
Compound CN(C)CCCCCCc1ccc(C(=O)c2cccc(Br)c2)cc1 [Compound 26, 3-Bromo-4'-[6-(dimethylamino)hexyl]benzophenone] has an IC50 [2, 4] of 1080 nM.
Compound Cc1ccccc1C(=O)c1ccc(CCCCCCN(C)C)cc1 [Compound 27, 4-[6-(Dimethylamino)hexyl]-2'-methylbenzophenone] has an IC50 [2, 4] of 495 nM.
For CN(C)CCCCCCc1ccc(C(=O)c2ccc([N+](=O)[O-])cc2)cc1 [Compound 28, 4-[6-(Dimethylamino)hexyl]-4'-nitrobenzophenone], the IC50 [2, 4] was 592 nM.
For CN(C)CCCCCCc1ccc(C(=O)c2ccccc2Cl)cc1 [Compound 29, 2-Chloro-4'-[6-(dimethylamino)hexyl]benzophenone], the IC50 [2, 4] was 320 nM.
Compound CC(=O)N1CCN(c2ccc(OCC3COC(Cn4ccnc4)(c4ccc(Cl)cc4Cl)O3)cc2)CC1 (stereo not drawn) [Ketoconazole, reference compound] has an MIC in combination ([3]; C. albicans B4, Ketoconazole in combination with Compound 1) of 0.15 µg/mL, an MIC in combination ([3]; C. albicans B5, Ketoconazole in combination with Compound 1) of 0.075 µg/mL and an MIC in combination ([3]; C. albicans H12, Ketoconazole in combination with Compound 1) of 0.3 µg/mL. For the same compound, the MIC in combination ([3]; C. albicans H29, Ketoconazole in combination with Compound 1) was 0.075 µg/mL, the MIC in combination ([3]; C. albicans H42, Ketoconazole in combination with Compound 1) was 0.15 µg/mL and the MIC ([3]; C. albicans B4, Ketoconazole alone) was 2.5 µg/mL. It also gave an MIC ([3]; C. albicans B5, Ketoconazole alone) of 0.15 µg/mL, an MIC ([3]; C. albicans H12, Ketoconazole alone) of 5 µg/mL and an MIC ([3]; C. albicans H29, Ketoconazole alone) of 1.29 µg/mL. It also gave an MIC ([3]; C. albicans H42, Ketoconazole alone) of 5 µg/mL.
